Measured values as given in ChEMBL document CHEMBL1201862, “PubChem BioAssay data set” (2004).
The source made the active and inactive calls.

How the values were obtained:
[1] = A Cell Based Secondary Assay To Explore Cytotoxicity of Compounds that Sensitize Mycobacterium Tuberculosis to Beta-Lactam Antibiotics.; type: functional
[2] = target: T1, Calpain-2 catalytic subunit (Sus scrofa, UniProt P43367); experiment: pig calpain II inhibitor potency, dose response, biochemical, fluorogenic peptide substrate (AID 1420); type: functional
T1 sequence (P43367 whole entry): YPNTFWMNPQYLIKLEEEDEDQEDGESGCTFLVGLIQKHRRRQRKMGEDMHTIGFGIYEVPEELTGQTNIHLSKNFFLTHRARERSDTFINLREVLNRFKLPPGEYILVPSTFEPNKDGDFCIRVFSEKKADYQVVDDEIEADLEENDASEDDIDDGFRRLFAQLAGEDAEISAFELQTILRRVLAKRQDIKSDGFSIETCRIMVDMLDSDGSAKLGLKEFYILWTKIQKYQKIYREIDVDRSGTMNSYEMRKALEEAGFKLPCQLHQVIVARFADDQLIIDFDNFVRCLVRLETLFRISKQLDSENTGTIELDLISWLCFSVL

[3] = target: T2, Estrogen receptor (Homo sapiens, UniProt P03372);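 further: potency for inhibiting coactivator peptide recruitment to the receptor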
T2 sequence (P03372 whole entry): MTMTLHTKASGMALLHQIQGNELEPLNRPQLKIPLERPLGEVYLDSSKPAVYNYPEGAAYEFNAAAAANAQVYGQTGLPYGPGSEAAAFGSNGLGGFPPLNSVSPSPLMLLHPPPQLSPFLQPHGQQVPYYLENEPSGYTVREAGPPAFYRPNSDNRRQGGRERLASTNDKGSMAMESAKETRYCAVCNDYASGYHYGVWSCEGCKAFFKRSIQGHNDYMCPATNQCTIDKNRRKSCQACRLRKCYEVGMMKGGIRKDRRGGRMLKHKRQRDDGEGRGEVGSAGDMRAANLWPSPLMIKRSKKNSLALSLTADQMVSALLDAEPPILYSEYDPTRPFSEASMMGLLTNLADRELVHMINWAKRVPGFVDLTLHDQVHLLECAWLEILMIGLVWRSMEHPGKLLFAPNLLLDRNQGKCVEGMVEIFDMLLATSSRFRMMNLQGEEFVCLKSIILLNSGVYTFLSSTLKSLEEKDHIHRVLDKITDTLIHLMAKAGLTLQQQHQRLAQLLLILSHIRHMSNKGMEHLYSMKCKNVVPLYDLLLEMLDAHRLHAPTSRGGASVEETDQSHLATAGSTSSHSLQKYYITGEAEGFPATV

[4] = target: T3, Protein skinhead-1 (Caenorhabditis elegans, UniProt P34707); type: functional
T3 sequence (P34707 whole entry): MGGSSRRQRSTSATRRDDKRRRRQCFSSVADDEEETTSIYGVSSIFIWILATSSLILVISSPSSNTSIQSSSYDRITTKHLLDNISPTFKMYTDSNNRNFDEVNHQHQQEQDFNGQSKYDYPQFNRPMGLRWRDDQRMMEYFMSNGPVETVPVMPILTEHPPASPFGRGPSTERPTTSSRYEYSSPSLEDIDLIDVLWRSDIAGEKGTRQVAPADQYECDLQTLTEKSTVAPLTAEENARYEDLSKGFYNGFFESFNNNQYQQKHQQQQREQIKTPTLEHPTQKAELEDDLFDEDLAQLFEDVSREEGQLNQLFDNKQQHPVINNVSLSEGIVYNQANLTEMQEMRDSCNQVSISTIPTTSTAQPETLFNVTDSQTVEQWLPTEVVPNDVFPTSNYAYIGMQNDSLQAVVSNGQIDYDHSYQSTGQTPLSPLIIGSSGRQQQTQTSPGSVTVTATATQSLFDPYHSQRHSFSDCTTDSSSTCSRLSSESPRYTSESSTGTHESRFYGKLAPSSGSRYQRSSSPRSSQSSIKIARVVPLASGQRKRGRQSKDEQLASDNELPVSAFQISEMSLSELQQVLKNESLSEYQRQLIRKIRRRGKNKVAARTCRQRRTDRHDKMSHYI

[5] = microbe, parasite or virus in culture; type: functional; conditions: Mycobacterium tuberculosis
[6] = system: H9c2; experiment: cells; type: functional, cell-based; conditions: Rattus norvegicus, H9c2, Myocardium;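 further: confirmatory concentration-response retest of ultra-high-throughput screening hits for modulation of myocardial damage; cell death induced by hydrogen peroxide oxidative stress; compound pretreatment for 60 min then peroxide exposure for 2 h; potency is for protecting the cells against peroxide damage rather than for killing them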
[7] = system: INS1; experiment: beta cell apoptosis inhibitors, cytokine rescue, dose response, luminescence, retest (AID 449756); type: functional, cell-based; conditions: Rattus norvegicus;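 further: cell death triggered by IL-1 beta plus TNF-alpha plus IFN-gamma mixture; protective hits raise ATP signal compared with cytokine alone wells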
[8] = target: T4, Heat shock factor protein 1 (Mus musculus, UniProt P38532); experiment: inhibition of MG132-induced HSE-luciferase signal, confirmation, cell-based, NIH3T3, luminescence, dose retest (AID 2382); type: functional;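 further: NIH3T3 fibroblasts with HSF1-driven luciferase reporter stressed by proteasome inhibitor MG132; luminescence from HSF1-driven luciferase expression after 8 hours of MG132 stress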
T4 sequence (P38532 whole entry): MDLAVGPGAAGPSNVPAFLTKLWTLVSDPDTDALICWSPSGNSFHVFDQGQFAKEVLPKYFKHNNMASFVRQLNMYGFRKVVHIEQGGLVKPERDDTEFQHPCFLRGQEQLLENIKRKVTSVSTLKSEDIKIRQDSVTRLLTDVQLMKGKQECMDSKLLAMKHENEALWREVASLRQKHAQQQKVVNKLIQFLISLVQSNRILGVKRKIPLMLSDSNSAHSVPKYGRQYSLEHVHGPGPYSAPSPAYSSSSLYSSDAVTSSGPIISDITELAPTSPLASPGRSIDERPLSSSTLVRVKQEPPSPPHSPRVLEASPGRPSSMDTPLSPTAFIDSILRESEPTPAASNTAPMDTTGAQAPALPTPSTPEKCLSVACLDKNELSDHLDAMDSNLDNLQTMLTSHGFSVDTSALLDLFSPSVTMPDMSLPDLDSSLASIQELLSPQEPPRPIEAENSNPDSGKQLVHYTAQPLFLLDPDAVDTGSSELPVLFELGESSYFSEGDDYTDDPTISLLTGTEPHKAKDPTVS

[9] = target: T5, Carboxy-terminal domain RNA polymerase II polypeptide A small phosphatase 1 (Homo sapiens, UniProt Q9GZU7); experiment: inhibitors of CTDSP1, concentration-response testing, biochemical assay, absorbance-based, actives from ultra-high-throughput screening (AID 540297); type: functional
T5 sequence (Q9GZU7 whole entry): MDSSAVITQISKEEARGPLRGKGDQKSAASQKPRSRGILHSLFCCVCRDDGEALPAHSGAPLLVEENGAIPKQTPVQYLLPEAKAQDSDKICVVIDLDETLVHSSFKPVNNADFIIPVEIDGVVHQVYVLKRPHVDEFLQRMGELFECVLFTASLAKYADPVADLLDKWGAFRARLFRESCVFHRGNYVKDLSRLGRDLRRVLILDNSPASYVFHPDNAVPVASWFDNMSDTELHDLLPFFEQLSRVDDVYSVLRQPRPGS

[10] = growth suppression of PTEN-null colon cells, dose response, cell-based, HCT116 PTEN knockout (AID 1047); type: functional;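 further: HCT116 colon tumor cells with PTEN knocked out; cells exposed to compound for 60 hours before readout; potency for loss of cell viability measured by luminescence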
[11] = growth suppression of beta-catenin-knockout colon cells, dose response, cell-based, HCT116, human colon tumor (AID 1045); type: functional;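 further: HCT116 colon tumor cells with beta catenin knocked out; cells exposed to compound for 60 hours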
[12] = inhibitors of intracellular T. cruzi replication, confirmation, NIH3T3 host cells, beta-gal luminescence (AID 2044); type: functional, cell-based;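 further: intracellular parasites grown in NIH/3T3 mouse fibroblasts as host cells; luminescent beta-galactosidase reporter signal from transgenic T. cruzi replicating inside host cells; inhibitors lower the luminescence signal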
[13] = cytotoxicity toward NIH3T3 fibroblasts, dose response, counter-screen, cell-based, ATP luminescence, mouse fibroblasts (AID 2010); type: functional;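 further: cells exposed to compound for about 90 hours before reading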
[14] = target: T6, Microphthalmia-associated transcription factor (Homo sapiens, UniProt O75030); experiment: TRPM1 promoter luciferase signal decrease, dose response, MITF inhibitor project, cell-based, SK-MEL-5, cherry-picked, set 3 (AID 493073); type: functional
T6 sequence (O75030 whole entry): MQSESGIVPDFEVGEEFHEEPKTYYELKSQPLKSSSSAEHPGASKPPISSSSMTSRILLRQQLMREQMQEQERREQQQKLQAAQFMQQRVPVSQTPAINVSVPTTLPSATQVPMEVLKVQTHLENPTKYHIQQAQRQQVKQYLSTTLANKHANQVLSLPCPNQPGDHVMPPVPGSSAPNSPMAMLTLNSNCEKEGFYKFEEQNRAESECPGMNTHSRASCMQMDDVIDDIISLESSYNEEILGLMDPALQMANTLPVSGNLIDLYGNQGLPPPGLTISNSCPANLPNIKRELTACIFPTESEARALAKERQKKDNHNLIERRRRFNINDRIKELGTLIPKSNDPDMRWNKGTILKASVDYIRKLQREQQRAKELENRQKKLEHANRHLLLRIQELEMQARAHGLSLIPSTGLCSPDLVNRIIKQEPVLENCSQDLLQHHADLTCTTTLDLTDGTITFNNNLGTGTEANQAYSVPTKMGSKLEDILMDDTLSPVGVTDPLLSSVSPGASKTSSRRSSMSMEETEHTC

[15] = Luminescence Cell-Based Dose Retest to Confirm Inhibitors of Cancer Stem Cells. [Related pubchem assays (depositor defined):AID2717, AID2721]; type: functional; conditions: Homo sapiens

With `COc1cc(CNCCO)cc(Br)c1OCc1ccccc1Cl` the CC50 [1] was 20.3 µM (active).
In the case of `Cn1nnnc1SCC(=O)NC1CCCCC1`, the IC50 [2] was < 0.4 µM (not active).
For `Cc1ccc(CNc2nc3ccccc3n3nnnc23)cc1`, the IC50 [3] was > 50 µM (not active).
For `Cc1cc(F)ccc1S(=O)(=O)N1CCCOC1CNC(=O)C(=O)NCc1ccc2c(c1)OCO2` (stereo not drawn), the IC50 [4] was > 100 µM (inactive).
With `COc1cc2cnc(-c3ccsc3)c(-c3ccc(F)cc3)c2cc1OC` the CC50 [1] was > 40 µM (active).
In the case of `CCSc1nc2ccccc2c(=O)n1CCc1ccc(OC)c(OC)c1`, the CC50 [1] was > 40 µM (active).
In the case of `COc1cc(CNc2ccc(NC(C)=O)cc2)ccc1OCc1ccccc1C`, the CC50 [1] was > 40 µM (active).
For `O=C(CN1CCC(n2nnc3cc(C(F)(F)F)ccc32)CC1)NCc1cccs1`, the CC50 [5] was > 40 µM (active).
With `O=C(NC1CCCCC1)C(c1ccc2ncccc2c1)N(Cc1ccco1)C(=O)c1ccc2c(c1)OCCO2` (stereo not drawn) the CC50 [5] was > 40 µM (active) and the IC50 [6] was 12.6 µM (active).
In the case of `CCN(CC)C(=O)c1cc([N+](=O)[O-])cc2c1-c1ccc([N+](=O)[O-])cc1C2=C(C#N)C#N`, the AC50 [7] was 6.32 µM (active) and the CC50 [5] was > 40 µM (active).
With `O=C1c2ccccc2C(=O)N1CCc1nc(-c2ccc(Cl)cc2)no1` the IC50 [4] was 94.6 µM (inactive).
With `CC(=O)c1c(C)[nH]c(C(=O)COc2ccc(C#N)cc2)c1C` the IC50 [3] was 34 µM (not active).
In the case of `COc1ccc(N2CCN(c3nc(NC(C)(C)C)nc(N4CCCCC4)n3)CC2)cc1`, the IC50 [2] was 24.4 µM (not active).
In the case of `CCCc1nc(SCC(=O)N2CCCc3ccccc32)c2c(=O)n(C)c(=O)n(C)c2n1`, the IC50 [2] was 16.7 µM (not active).
In the case of `CCOc1cc(C)c(S(=O)(=O)NC2CCCCC2)cc1C`, the EC50 [8] was > 195 µM (not active) and the IC50 [2] was > 50 µM (not active).
For `CCOc1ccc(NC(=O)c2cc3cc4ccc(OC)cc4nc3o2)cc1`, the IC50 [9] was 6.92 µM (active) and the IC50 [3] was 47.3 µM (not active).
For `CN=C(S)N=NC1=C(O)c2cccc3cccc1c23`, the EC50 [10] was 13.9 µM (active), the CC50 [1] was 28.2 µM (active) and the EC50 [11] was 10.5 µM (active).
For `C/C(=N\NC(=N)SC1CC(=O)N(c2ccc(Cl)cc2)C1=O)c1cccs1` (stereo not drawn), the CC50 [5] was > 40 µM (active).
With `COc1ccc(-c2nc(C(N)=O)c3[nH]c(=O)n(-c4cccc(Cl)c4)c3n2)cc1OC` the IC50 [3] was 6.26 µM (active).
For `FC(F)(F)c1cccc(NCc2nnc(S)n2C2CCCCC2)c1`, the IC50 [2] was 27.8 µM (not active).
For `Cc1ccc(-c2noc(C3CCCN(C(=O)c4ccc(C(C)(C)C)cc4)C3)n2)o1` (stereo not drawn), the CC50 [5] was > 40 µM (active).
With `Cc1cc(C(F)(F)F)n2ncc(-c3ccc(F)cc3)c2n1` the IC50 [4] was > 100 µM (inactive).
In the case of `Cc1ccc(S(=O)(=O)n2ccc3c(OCCOCCNCc4ccc(F)cc4)cccc32)cc1`, the EC50 [12] was 0.226 µM (active), the CC50 [5] was 13.3 µM (active) and the EC50 [13] was > 30 µM (not active).
For `CCOc1ccc(NC(=O)CCN2CCN(C)CC2)cc1`, the IC50 [4] was > 100 µM (inactive).
With `COCCn1c(SCC(=O)Nc2cccc(C)c2)nnc1C(C)C` the IC50 [4] was > 100 µM (inactive).
In the case of `CCOc1ccc(Oc2ccc(-c3nnc(-c4ccccc4)o3)cc2[N+](=O)[O-])cc1`, the IC50 [2] was 4.33 µM (not active).
With `O=C(N/N=C/c1ccc([N+](=O)[O-])o1)c1ccccc1-n1cccc1` the AC50 [14] was 17.1 µM (active), the EC50 [12] was 0.137 µM (active) and the CC50 [1] was 32.1 µM (active). For the same compound, the EC50 [13] was > 60 µM (not active).
With `CCn1nc(C(=O)OCC(=O)N2c3ccccc3CC2C)c2ccccc2c1=O` (stereo not drawn) the IC50 [2] was 29.2 µM (not active).
With `NC(=O)CC(NC(=O)Cc1ccc(Br)cc1)c1ccc(NC2CCCCCC2)c([N+](=O)[O-])c1` (stereo not drawn) the CC50 [1] was > 40 µM (active) and the AC50 [15] was 4.61 µM (active).
In the case of `c1ccc(-n2nnc(-c3nccs3)n2)cc1`, the IC50 [4] was 88.2 µM (inactive).
In the case of `O=C(c1cccc(F)c1)N1CCN(c2cccc(C(F)(F)F)c2)CC1`, the IC50 [4] was > 100 µM (inactive).
